Laboratory results from patent publication US6518282B1, “4-Arylpiperidine derivatives for the treatment of pruritus” (Pfizer Inc., priority 1999, dated 2003).

System: hind leg scratching behaviour induced in rats by the administration of a known pruritogenic agent
Conditions: rats challenged s.c. with 5-methoxytryptamine hydrochloride (4 mg/3 mL/kg); test compound by subcutaneous injection in aqueous micelle formulation; scratching score totalled after 25 minutes vs control group
Method: The compounds of the invention are evaluated for their activity as antipruritic agents by measuring their ability to inhibit the hind leg scratching behaviour induced in rats by the administration of a known pruritogenic agent. […] The test is performed as follows:
Male Wistar rats (approximately 150 g body weight) are challenged with a pruritogen by subcutaneous injection of 5-methoxytryptamine hydrochloride (4 mg/3 mL/kg) dissolved in physiological saline into the scruff of the neck. At this dose a constant and quantifiable hindleg scratching response lasting up to 90 minutes is obtained.
The test compound is administered to the test animals by subcutaneous injection in an aqueous micelle formulation. The test compound is prepared in the following manner. […] The compounds can be administered pre- or post-challenge or may be administered at the same time as the pruritogenic challenge.
After the pruritogen challenge has been administered, hindleg scratching is scored for each animal by recording the presence or absence of scratching during each 30 second interval as 1 or 0 scored respectively. The score for each animal is totalled after 25 minutes (maximum score 50).

Question: With `CCOCCN1CC[C@@](C)(c2cccc(O)c2)[C@H](C)C1` (racemic) [Example 5] as the compound, how does the anti-pruritic activity read?
Answer: Its anti-pruritic activity is “display anti-pruritic activity”.
